Laboratory results taken from article PMC6216040, “Repurposing of an old drug: In vitro and in vivo efficacies of buparvaquone against Echinococcus multilocularis” (International Journal for Parasitology: Drugs and Drug …, 2018).

Test system: E. multilocularis metacestodes
Assay: PGI-assay: drug-induced damage on in vitro cultured metacestodes (Pathogen Box screening cascade and EC50)
Format: cell-based, Echinococcus multilocularis
Settings: for PGI release, % of the Tx-100 control, 5d / PGI release, % of the Tx-100 control, 12d: 10 µM, singlets; for PGI release, % of the Tx-100 control, 5d / PGI release, % of Tx-100 control, average, 5d: 5 days of incubation; for PGI release, % of the Tx-100 control, 12d / PGI release, % of Tx-100 control, average, 12d: 12 days of incubation; for PGI release, % of Tx-100 control, average, 5d / PGI release, % of Tx-100 control, average, 12d: confirmatory screening at 10 µM in triplicates, values as % of Tx-100 control

Row | SMILES | PGI release, % of the Tx-100 control, 5d [%] | PGI release, % of the Tx-100 control, 12d [%] | PGI release, % of Tx-100 control, average, 5d [%] | PGI release, % of Tx-100 control, average, 12d [%]
1 | O=C(Nc1ccccc1-c1nc2c(C(=O)O)cccc2o1)c1ccccc1 [MMV676162] | 0.15 | 0.13 |  | 
2 | Nc1ncnc2c1c(Cc1cccc3ccccc13)nn2CC1CCNCC1 [MMV676182] | 0.88 | -0.92 |  | 
3 | COC(=O)c1cccc2oc(-c3cccc(OC)c3NC(=O)c3cc(-c4ccccc4)on3)nc12 [MMV676186] | 1.00 | 13.03 |  | 
4 | CC(C)C(Oc1cccc2ccccc12)C(=O)O (stereo not shown) [MMV676191] | -0.44 | -4.34 |  | 
5 | O=C(c1ccc(F)cc1)N(CCNc1ccccc1)c1ccccc1 [MMV676204] | 0.89 | 22.26 | -0.89 | -0.80
6 | CN1CCN(c2nccc3nc(-c4ccc(F)c(F)c4)[nH]c23)CC1 [MMV676260] | 0.28 | 0.56 |  | 
7 | C[C@H](C(N)=O)N1CCCC[C@H]1c1ccc(OCc2cccc(F)c2)cc1 [MMV676269] | 1.52 | 1.07 |  | 
8 | C[C@H](C(N)=O)N1CCCC[C@@H]1c1ccc(OCc2cccc(F)c2)cc1 [MMV676270] | -0.98 | -0.91 |  | 
9 | Cc1c[nH]c(CCNC(=O)c2cc(-c3ccc(Cl)cc3)cs2)n1 [MMV676350] | -0.41 | 1.56 |  | 
10 | Nc1ncc(Br)cc1-c1nc2cc(Cl)cnc2[nH]1 [MMV676358] | 0.16 | -0.55 |  | 
11 | Brc1c(-c2ccc3c(c2)OCO3)nc2ncccn12 [MMV676377] | 0.59 | -0.19 |  | 
12 | COc1cccc(OCC(=O)c2ccc(Br)cc2)c1 [MMV676379] | -3.68 | -3.36 |  | 
13 | CC(=O)Nc1ccc(NC(=O)c2cc(-c3cc(Cl)ccc3O)n[nH]2)cc1 [MMV676380] | -0.62 | -0.39 |  | 
14 | Cn1ncc2c(N3CCOCC3)nc(NCCc3c[nH]c4ccccc34)nc21 [MMV676382] | 0.80 | -0.14 |  | 
15 | CCC(Sc1nc2ccccc2o1)C(=O)Nc1nccs1 (stereo not shown) [MMV676383] | 0.61 | 4.85 |  | 
16 | N#Cc1nc(-c2ccccc2F)oc1NCCc1ccccc1 [MMV676384] | 0.0223 | -0.18 |  | 
17 | Cc1cccc(Cn2ccc(NC(=O)c3ccc4c(c3)OCO4)n2)c1 [MMV676386] | 0.18 | -0.91 |  | 
18 | COc1cccc(-n2nnnc2S(=O)(=O)Cc2ccccc2)c1 [MMV676388] | 12.00 | 14.67 |  | 
19 | O=C(c1n[nH]c2c1CCCC2)N1CCN(Cc2ccc3c(c2)OCO3)CC1 [MMV676389] | 1.07 | 3.62 |  | 

Row | SMILES | PGI release, % of the Tx-100 control, 5d [%] | PGI release, % of the Tx-100 control, 12d [%] | PGI release, % of Tx-100 control, average, 5d [%] | PGI release, % of Tx-100 control, average, 12d [%]
20 | O=C(Nc1cccnc1)c1c(O)c2cccc3c2n(c1=O)CC3 [MMV676395] | -2.29 | 0.06 |  | 
21 | CCS(=O)(=O)N(Cc1ccco1)Cc1cc2ccc(C)cc2[nH]c1=O [MMV676398] | -0.33 | 4.91 |  | 
22 | c1coc(CNc2nc(N3CCCCC3)nc3ccccc23)c1 [MMV676401] | -3.33 | 41.40 | -0.0357 | -0.23
23 | CC(C)n1ncc2c(C(=O)NCC(c3cccs3)N3CCOCC3)cc(-c3ccccc3)nc21 (stereo not shown) [MMV676406] | 0.95 | 2.38 |  | 
24 | O=C(COc1cccc(F)c1)Nc1nc(-c2ccccn2)cs1 [MMV676409] | -3.57 | -0.58 |  | 
25 | CC(Oc1ccccc1)C(=O)Nc1nc(-c2ccccn2)cs1 (stereo not shown) [MMV676411] | 0.12 | 0.11 |  | 
26 | N#Cc1nc(-c2ccccc2)oc1S(=O)(=O)c1ccc(Cl)cc1 [MMV676412] | 0.33 | 0.62 |  | 
27 | Cc1ccc(NC(=O)CC2COc3ccccc3O2)cc1Cl (stereo not shown) [MMV676431] | -2.82 | 0.24 |  | 
28 | Cc1ccc2nc(Cl)c(CNCc3cccs3)cc2c1 [MMV676439] | -0.82 | 3.19 |  | 
29 | CC(C)c1ncc(-c2ccncc2)c(C2CCC(CNC(=O)c3cccnc3)CC2)n1 (stereo not shown) [MMV676442] | -0.58 | 4.83 |  | 
30 | O=C(NC1CCCCC1)N1CCN(Cc2ccc3c(c2)OCO3)CC1 [MMV676444] | -3.25 | 1.66 |  | 
31 | CCCn1c(CNc2ccccc2O)nc2ccccc21 [MMV676445] | -1.26 | 2.30 |  | 
32 | CCc1nc2ccccc2n1CC(O)COc1cc(C)ccc1Cl (stereo not shown) [MMV676449] | 0.81 | 2.81 |  | 
33 | CCOC(=O)c1cc(-c2csc(Nc3c(C)cc(C)cc3C)n2)on1 [MMV676461] | 0.19 | -0.25 |  | 
34 | NC(CC(=O)c1ccc(Cl)cc1Cl)C(Cl)(Cl)Cl (stereo not shown) [MMV676468] | -0.27 | -0.82 |  | 
35 | CCOc1ccc(OCC(=O)Nc2cc(C)cc(C)c2)cc1 [MMV676470] | -0.69 | -0.73 |  | 
36 | COc1cccc(OC)c1C(=O)Nc1ccc(Cl)c(-c2nc3ccccc3s2)c1 [MMV676472] | 5.75 | 51.73 | 0.98 | 2.19
37 | COc1ccccc1OCCCCn1c(C2CC2)nc2ccccc21 [MMV676474] | 1.01 | 0.22 |  | 
38 | Cc1cc(C)cc(COc2ccc3c(C)c(CCC(=O)O)c(=O)oc3c2C)c1 [MMV676476] | 0.11 | 10.97 |  | 

Row | SMILES | PGI release, % of the Tx-100 control, 5d [%] | PGI release, % of the Tx-100 control, 12d [%] | PGI release, % of Tx-100 control, average, 5d [%] | PGI release, % of Tx-100 control, average, 12d [%]
39 | CCc1c(C)nc(-n2nc(C)cc2NC(=O)c2ccccc2SC)[nH]c1=O [MMV676477] | -3.90 | 30.66 | -0.18 | 2.18
40 | O=C(C1CCN(c2nnc(-n3cccc3)s2)CC1)N1CCC(Cc2ccccc2)CC1 [MMV676478] | -4.04 | 0.80 |  | 
41 | COC(=O)c1c(NC(=O)c2cc3ccccc3oc2=O)sc2c1CCN(Cc1ccccc1)C2 [MMV676480] | -0.80 | 1.41 |  | 
42 | O=C(Nc1n[nH]c(=S)s1)c1cc(Br)ccc1Cl [MMV676492] | 5.74 | 1.03 |  | 
43 | O=C(Nc1nnc(-c2ccc(Cl)s2)o1)c1ccc(Cl)s1 [MMV676501] | 1.15 | 0.52 |  | 
44 | Cc1ccc2oc(-c3cc(NC(=O)Cc4ccccc4)ccc3Cl)nc2c1 [MMV676509] | -0.17 | 0.19 |  | 
45 | O=C(Nc1nc(-c2ccccn2)cs1)c1cncn1-c1ccccc1 [MMV676512] | 0.19 | 0.30 |  | 
46 | O=C(c1cc2ccccc2o1)N1CCN(Cc2ccc3c(c2)OCO3)CC1 [MMV676520] | -0.72 | -0.39 |  | 
47 | Nc1cccnc1Nc1ccc(Cl)cc1 [MMV676524] | 0.13 | 0.29 |  | 
48 | COc1ccc(-c2cc(NC(=O)c3ccc(F)cc3Cl)ccc2OC)cc1 [MMV676526] | 1.97 | -2.37 |  | 
49 | Cc1cccc(NC(=O)c2cc(S(=O)(=O)N(C)c3ccc(F)cc3)ccc2Cl)n1 [MMV676528] | -0.45 | 0.71 |  | 
50 | COCC(C)NC(=O)CSc1ncnc2sc(-c3ccccc3)cc12 (stereo not shown) [MMV676536] | 3.74 | 50.91 | 0.53 | 0.42
51 | O=C(NCCc1c[nH]c2ccccc12)c1cc2ccccc2oc1=O [MMV676539] | 0.63 | 17.31 |  | 
52 | COc1ccc(Nc2ccccc2NC(=O)c2ccc(=O)[nH]c2)cc1 [MMV676554] | 0.17 | 3.85 |  | 
53 | Cc1nnc(NCc2cccc(Cl)c2)c2ccccc12 [MMV676555] | -3.14 | 1.45 |  | 
54 | CC1=NN(c2nc3ccccc3s2)C(=O)C1Cc1cccc2ccccc12 (stereo not shown) [MMV676558] | 13.65 | 78.65 | -0.26 | 0.35
55 | COc1ccc(-c2nc(-c3cccc(NC(=O)Cc4ccc(F)cc4)c3)no2)cc1OC [MMV676571] | -1.41 | 1.58 |  | 
56 | O=C(NC1=NCCS1)c1sc2cc(F)ccc2c1Cl [MMV676584] | -1.36 | 1.53 |  | 
